Test results as given in patent US20030073744A1, “Agent for enhancing cerebral acetylcholine release” (priority 1999, published 2003).

How the values were obtained:
ACh release = test: Test of the enhancing effect of ACh release (brain microdialysis in freely moving SHRSP); assay type: in vivo, rat; settings: for enhancement of ACh release (percent change over baseline): perfused for 20 minutes through microdialysis probe (10^-7 to 10^-5 M)
Text: Test animals: Male stroke-prone spontaneously hypertensive rats (SHRSP) at 13 weeks of age, which received 1% NaCl solution instead of water for 5 weeks prior to the experiment. Test method: SHRSP were anesthetized and a guide cannula was implanted into the thalamus, dorsal hippocampus and prefrontal cortex. After recovery, a concentric microdialysis probe was inserted into the guide cannula and perfused with normal Ringer solution containing 10^−5 M eserine (SIGMA, St. Louis, USA) at a constant flow rate of 2 μl/min under freely moving condition. […] The dialysates for every 20 minutes were collected and injected into the high-pressure liquid chromatography system to quantify extracellular ACh levels. ACh release was expressed as percent change over the average of three consecutive stable samples collected before drug perfusion.

aged Wistar rats = test: Test of the ameliorating effect of impaired circadian rhythm (food-motivated anticipatory activity); assay type: in vivo, rat; settings: 30 and 100 mg/kg orally once daily for 7 consecutive days, FIG. 5
Procedure: Test animals: Male Wistar rats at 9 weeks of age (young group) and around 30 months of age (aged group).
Test method: Animals were individually housed and had free access to food and water. After fasting for 24 hours (Day 0), feeding was restricted to only 1 hour/day from 13:30 for 6 consecutive days. Food was again withheld on Day 7, and food-motivated circadian anticipatory activity was investigated. 1-p-Anisoyl-2-pyrrolidinone at 30 and 100 mg/kg or vehicle was orally administered immediately after the feeding time, once daily for 7 consecutive days. Spontaneous motor activity was measured in each home cage.

SHRSP = test: Test of improving effect of disturbed sleep pattern (EEG/EMG, REMS); assay type: in vivo, rat; settings: 15 mg/kg orally twice daily over 5 consecutive days, FIG. 7
Text: Test animals: Male SHRSP at 13 weeks of age, which received 1% NaCl solution instead of water over 5 weeks, and Wistar Kyoto rats (WKY) at the same age.
Test method: Animals were anesthetized, and electrodes for electroencephalogram (EEG) and a sensor for brain temperature were implanted into the cerebral cortex and electrodes for electromyogram (EMG) were implanted into the back cervical muscle. All variables were continuously recorded for 7 days, and the behavioral states of rats were classified into wakefulness, REMS, NREMS by analyzing the amplitude and frequency of EEG and EMG waves. 1-p-Anisoyl-2-pyrrolidinone at 15 mg/kg or vehicle was administered orally twice daily (morning and evening) over 5 consecutive days.

rats [1] = test: Acute toxicity after oral administration to rats (LD50); assay type: in vivo, rat; settings: both sexes
rats [2] = settings: repeated oral administration over 4 weeks, up to 600 mg/kg
[3] = Acute toxicity after oral administration to rats (LD50); assay type: in vivo, rat; settings: rat, in vivo
[4] = dorsal hippocampus of SHRSP, FIG. 2
[5] = prefrontal cortex of SHRSP, FIG. 3

SMILES | effect on ACh release (ACh release; any cerebral regions (thalamus, dorsal hippocampus, prefrontal cortex) of SHRSP) | impaired food-motivated anticipatory activity (aged Wistar rats) | reduced diurnal REMS (SHRSP) | acute toxicity (LD50 values) (rats [1]) | enhancement of ACh release (percent change over baseline) (ACh release; [4]) | enhancement of ACh release (percent change over baseline) (ACh release; [5]) | enhancement of ACh release (percent change over baseline) (ACh release; thalamus of SHRSP, FIG. 1) | sub-acute toxicity, such as lethality and abnormality in hematological, hematobiochemical and toxipathological tests (rats [2]) | LD50 ([3]; female animals) | LD50 ([3]; male animals)
COc1ccc(C(=O)N2CCCC2=O)cc1 [1-p-anisoyl-2-pyrrolidinone, 1-p-Anisoyl-2-pyrrolidinone] | not observed | significantly ameliorated | ameliorated |  |  |  |  |  |  | 
COc1ccc(C(=O)NCCCC(=O)O)cc1 [N-anisoyl-GABA, N-anisoyl-γ-aminobutyric acid] |  |  |  | more than 5,000 mg/kg | 48% | 70% | 32% | not observed |  | 
COc1ccc(C(=O)O)cc1 [p-anisic acid] |  |  |  |  | 51% | 61% | 22% | not observed | 2120 mg/kg | 1810 mg/kg
